Where a name gives a salt, the structure may show the parent alone.
Tests used:
c-Myc/Max/Ebox DNA = target: T1, c-Myc/Max/Ebox DNA (Homo sapiens, UniProt P01106); experiment: c-Myc/Max/Ebox DNA AlphaScreen Assay; type: binding; conditions: free c-Myc 20 nM, his6-Max 5 nM, biotinylated Ebox oligo 10 nM, 2 hour incubation
T1 construct: his6 (cleaved yes)
Protocol: Compounds of the invention were assayed for c-Myc/Max/EBox activity as described in the following protocol. Human his6-c-Myc and his6-Max were used with biotinylated DNA containing a single Ebox sequence (biotin[…]) purchased from MWG Operon. Free c-Myc was generated from his6-c-Myc through thrombin cleavage of the his6 tag. For 384-well plate assays, 10 μL of a 2× solution of free c-Myc (20 nM final), Ni^2+ coated Acceptor Beads (25 μg/ml final), and biotinylated Ebox oligo (10 nM final) were added to 384-well plates with a Biotek EL406 liquid handler. 50 nL of compounds from stock plates were added by pin transfer using a Janus Workstation (PerkinElmer), allowing the compounds to interact with c-Myc prior to c-Myc binding with Max. In the current assay, DMSO was not allowed to exceed 2% v/v of the assay. 10 μl of 2× master mix containing streptavidin-coated donor beads (25 μg/ml final) and his6-Max (5 nM) were added. AlphaScreen measurements were performed on an Envision plate reader (PerkinElmer) utilizing the manufacturer's protocol.
Both master mixes were made in room temperature assay buffer (50 mM HEPES, 150 mM NaCl, 0.2% w/v BSA, 0.02% w/v Tween20, 40 μg/ml glycogen, 500 μM DTT, pH 8.0, wherein both DTT and glycogen were added fresh). Alpha beads were added to respective master solutions. All subsequent steps were performed in low light conditions. Solution 1: 2× solution of components with final concentrations of c-Myc Ni-coated Acceptor Beads (25 μg/ml), and biotinylated Ebox oligo (10 nM). Solution 2: 2× solution of streptavidin-coated donor beads (25 μg/ml final) and his6-Max […]. Solution 1 was added to 384-well plate (AlphaPlate-384, PerkinElmer) with Biotek EL406 liquid handler and the plates were centrifuged very briefly. 50 nL of compounds from stock plates were added by pin transfer using a Janus Workstation. Solution 2 (10 μL) was added with the liquid handler. Plates were sealed with foil to block light exposure and prevent evaporation. Plates were very briefly centrifuged followed by 2 hour incubation. AlphaScreen measurements were performed on an Envision 2104 utilizing the manufacturer's protocol. Excitation was at 680 nm for donor bead release of singlet oxygen and emission was read with a bandpass filter from 520-620 nm. Glycogen: Roche Diagnostics #10901393001. Plate 1536: Perkin Elmer, 6004350. Plate 384: Perkin Elmer, 6005350. Nickel-His Alpha Beads: 6760619R. The data from this assay are summarized in Table 3 below (Myc/Max/DNA Activity).

[1] = test system: human small lung cancer cell line H2171; experiment: Cell Viability Assay (ATPlite); type: cell-based; conditions: NCI-H2171, 72 h, H2171 cells, incubated for three days, ATPlite readout
Protocol: Compounds of the invention were assayed for cell viability using the human small lung cancer cell line H2171 as described in the following protocol. Cells were counted and adjusted to 20,000 cells/mL. Using a Biotek EL406, 50 μL of cells in media were distributed into 384 well white plates from Thermo. Immediately after plating, compound in DMSO was distributed to plates. Compounds were added to plates using a 50 nL 384 well pin transfer manifold on a Janus workstation. Stocks were arrayed in 10 point dose response in DMSO stock in 384 well Greiner compound plates. After the addition of compounds, plates were incubated for three days in a 37° C. incubator. Cell viability was read out using ATPlite from Perkin Elmer. Lyophilized powder was resuspended in lysis buffer and diluted 1:2 with deionized water. 25 μL of this solution was added to each well using the Biotek liquid handler. Plates were incubated for 15 minutes at room temperature before signal was read on an Envision Plate Reader. The data from this assay are summarized in Table 3 below (H2171 activity).

T1 sequence (P01106 whole entry): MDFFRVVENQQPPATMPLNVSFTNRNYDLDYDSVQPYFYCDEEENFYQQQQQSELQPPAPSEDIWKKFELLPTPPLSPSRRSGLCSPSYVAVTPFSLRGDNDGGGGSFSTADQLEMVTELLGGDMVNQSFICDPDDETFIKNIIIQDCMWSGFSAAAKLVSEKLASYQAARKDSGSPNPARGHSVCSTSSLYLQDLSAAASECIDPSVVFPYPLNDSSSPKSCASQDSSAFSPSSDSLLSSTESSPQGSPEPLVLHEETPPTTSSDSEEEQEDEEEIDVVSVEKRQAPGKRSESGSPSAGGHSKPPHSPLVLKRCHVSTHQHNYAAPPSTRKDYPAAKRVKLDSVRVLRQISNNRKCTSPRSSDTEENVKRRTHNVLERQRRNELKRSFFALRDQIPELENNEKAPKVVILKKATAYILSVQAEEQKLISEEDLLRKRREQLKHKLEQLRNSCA

SMILES	IC50 (c-Myc/Max/Ebox DNA) [nM]	IC50 [1] [nM]
O=C(CCNCCc1cccnc1)Nc1sc2c(c1-c1nc3cnccc3s1)CCNC2 [Compound 218, 3-((2-(pyridin-3-yl)ethyl)amino)-N-(3-(thiazolo[4,5-c]pyridin-2-yl)-4,5,6,7-tetrahydrothieno[2,3-c]pyridin-2-yl)propanamide]	< 500	< 500
CC[C@H](C)NCCC(=O)Nc1sc2c(c1-c1nc3cnccc3s1)CCN(C(C)C)C2 [Compound 239, (S)-3-(sec-butylamino)-N-(6-isopropyl-3-(thiazolo[4,5-c]pyridin-2-yl)-4,5,6,7-tetrahydrothieno[2,3-c]pyridin-2-yl)propanamide]	< 500	< 500
CNCCC(=O)Nc1sc2c(c1-c1nc3cnccc3s1)CCNC2 [Compound 224, 3-(Methylamino)-N-(3-(thiazolo[4,5-c]pyridin-2-yl)-4,5,6,7-tetrahydrothieno[2,3-c]pyridin-2-yl)propanamide]	< 500	500 to 5000
CCC(C)NCCC(=O)Nc1sc2c(c1-c1nc3cnccc3s1)CCN(C(C)C)C2 (centres unmarked) [Compound 116, 3-(sec-butylamino)-N-(6-isopropyl-3-(thiazolo[4,5-c]pyridin-2-yl)-4,5,6,7-tetrahydrothieno[2,3-c]pyridin-2-yl)propanamide dihydrochloride]	< 500	< 500
COCCNCCC(=O)Nc1sc2c(c1-c1nc3cnccc3s1)CCNC2 [Compound 216, 3-((2-methoxyethyl)amino)-N-(3-(thiazolo[4,5-c]pyridin-2-yl)-4,5,6,7-tetrahydrothieno[2,3-c]pyridin-2-yl)propanamide]	< 500	< 500
CC[C@H](C)NCCC(=O)Nc1sc2c(c1-c1nc3c(C(F)F)nccc3s1)CCNC2 [Compound 226]	< 500	< 500
C[15NH]CCC(=O)Nc1sc2c(c1-c1nc3cnccc3s1)CCNC2 [Compound 248, 3-(Methylamino)-N-(3-(thiazolo[4,5-c]pyridin-2-yl)-4,5,6,7-tetrahydrothieno[2,3-c]pyridin-2-yl)propanamide]	< 500	< 500
O=C(CCN[C@@H]1C[C@H]2CNC[C@H]2C1)Nc1sc2c(c1-c1nc3cnccc3s1)CCNC2 [Compound 153]	< 500	< 500
CCN1C(C)c2sc(NC(C)=O)c(-c3nc4c(C(F)F)nccc4s3)c2C[C@H]1C (stereo in doubt) [Compound 235, N-((5R,7R)-3-(4-(difluoromethyl)thiazolo[4,5-c]pyridin-2-yl)-6-ethyl-5,7-dimethyl-4,5,6,7-tetrahydrothieno[2,3-c]pyridin-2-yl)acetamide]	< 500	< 500
CC[C@H](C)NCCC(=O)Nc1sc2c(c1-c1nc3cnccc3s1)CCNC2 [Compound 122, (S)-3-(sec-butylamino)-N-(3-(thiazolo[4,5-c]pyridin-2-yl)-4,5,6,7-tetrahydrothieno[2,3-c]pyridin-2-yl)propanamide]	< 500	< 500
CC[C@H](C)NCCC(=O)Nc1sc2c(c1-c1nc3cnccc3s1)CCN(CC)C2 [Compound 238, (S)-3-(sec-butylamino)-N-(6-ethyl-3-(thiazolo[4,5-c]pyridin-2-yl)-4,5,6,7-tetrahydrothieno[2,3-c]pyridin-2-yl)propanamide]	< 500	< 500
CC(=O)Nc1sc2c(c1-c1nc3cnccc3s1)C(C)CN(C(C)C)C2 (centres unmarked) [Compound 107, N-(6-isopropyl-4-methyl-3-(thiazolo[4,5-c]pyridin-2-yl)-4,5,6,7-tetrahydrothieno[2,3-c]pyridin-2-yl)acetamide]	500 to 5000	500 to 5000
COCCNCCC(=O)Nc1sc2c(c1-c1nc3c(C)nc(C)cc3s1)CCNC2 [Compound 227, N-(3-(4,6-Dimethylthiazolo[4,5-c]pyridin-2-yl)-4,5,6,7-tetrahydrothieno[2,3-c]pyridin-2-yl)-3-((2-methoxyethyl)amino)propanamide dihydrochloride]	< 500	< 500
CC(=O)Nc1sc2c(c1-c1nc3cnccc3s1)C[C@@H](C)N[C@H]2C [Compound 237]	500 to 5000	500 to 5000
COCCNCCC(=O)Nc1sc2c(c1-c1nc3c(C(F)F)nc(C)cc3s1)CCNC2 [Compound 245]	< 500	< 500
CCN1Cc2sc(NC(C)=O)c(-c3nc4cnccc4s3)c2C[C@@H]1C [Compound 231, (S)—N-(6-ethyl-5-methyl-3-(thiazolo[4,5-c]pyridin-2-yl)-4,5,6,7-tetrahydrothieno[2,3-c]pyridin-2-yl)acetamide]	500 to 5000	< 500
CC(=O)Nc1sc2c(c1-c1nc3cnccc3s1)CCN(C)C2 [Compound 114, N-(6-methyl-3-(thiazolo[4,5-c]pyridin-2-yl)-4,5,6,7-tetrahydrothieno[2,3-c]pyridin-2-yl)acetamide]	500 to 5000	500 to 5000

Further lines, results first:

IC50 (c-Myc/Max/Ebox DNA) [nM]	IC50 [1] [nM]	SMILES
< 500	< 500	CN(C)CCC(=O)Nc1sc2c(c1-c1nc3cnccc3s1)CCNC2 [Compound 219, 3-(dimethylamino)-N-(3-(thiazolo[4,5-c]pyridin-2-yl)-4,5,6,7-tetrahydrothieno[2,3-c]pyridin-2-yl)propanamide]
< 500	< 500	CCC(C)NCCC(=O)[15NH]c1sc2c(c1-c1nc3cnccc3s1)CCNC2 (centres unmarked) [Compound 251, 3-(sec-Butylamino)-N-(3-(thiazolo[4,5-c]pyridin-2-yl)-4,5,6,7-tetrahydrothieno[2,3-c]pyridin-2-yl)propan-^15N-amide]
< 500	< 500	CN(CCCn1ccnc1)CCC(=O)Nc1sc2c(c1-c1nc3cnccc3s1)CCNC2 [Compound 190]
< 500	< 500	COCCNCCC(=O)Nc1sc2c(c1-c1nc3cnc(Cl)cc3s1)CCNC2 [Compound 243]
< 500	< 500	O=C(CCN[C@H]1CC[C@H](O)C1)Nc1sc2c(c1-c1nc3cnccc3s1)CCNC2 [Compound 176]
< 500	< 500	O=C(CCNC1CNC1)Nc1sc2c(c1-c1nc3cnccc3s1)CCNC2 [Compound 223, 3-(Azetidin-3-ylamino)-N-(3-(thiazolo[4,5-c]pyridin-2-yl)-4,5,6,7-tetrahydrothieno[2,3-c]pyridin-2-yl)propanamide]
< 500	500 to 5000	O=C(CCN1CCCC12CNC2)Nc1sc2c(c1-c1nc3cnccc3s1)CCNC2 [Compound 206]
500 to 5000	< 500	O=C(CCN1CCCCC12CNC2)Nc1sc2c(c1-c1nc3cnccc3s1)CCNC2 [Compound 183]
500 to 5000	< 500	C[C@@H]1Cc2c(sc(NC(=O)CCN[C@@H]3C[C@H]4CNC[C@H]4C3)c2-c2nc3cnccc3s2)CN1 [Compound 250, N—((R)-5-methyl-3-(thiazolo[4,5-c]pyridin-2-yl)-4,5,6,7-tetrahydrothieno[2,3-c]pyridin-2-yl)-3-(((3aR,5s,6aS)-octahydrocyclopenta[c]pyrrol-5-yl)amino)propanamide]
< 500	< 500	CC(C)NCCC(=O)Nc1sc2c(c1-c1nc3ncccc3s1)CCNC2 [Compound 220, 3-(isopropylamino)-N-(3-(thiazolo[4,5-b]pyridin-2-yl)-4,5,6,7-tetrahydrothieno[2,3-c]pyridin-2-yl)propanamide dihydrochloride]
< 500	< 500	CC[C@H](C)NCCC(=O)Nc1sc2c(c1-c1nc3cnccc3s1)CCN[C@H]2C [Compound 234, 3-(((S)-sec-butyl)amino)-N—((S)-7-methyl-3-(thiazolo[4,5-c]pyridin-2-yl)-4,5,6,7-tetrahydrothieno[2,3-c]pyridin-2-yl)propanamide]
